# Measurements from patent publication US20230085307A1, “PYRIDAZINONE COMPOUND AND HERBICIDE” (NISSAN CHEMICAL CORPORATION, priority 2019, published 2023).
# Assays:
# blackgrass [1] = assay: Test Example 5: herbicidal effect by foliage application, plastic box (Table 20, symbol J); type: in vivo, blackgrass (Alopecurus myosuroides); conditions: foliage application, 320 g/ha, 3 weeks after application
# Procedure, shortened: (§1)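 Plants were sown into sterilized diluvial soil under about 1.5 cm cover and kept in a greenhouse at 25° C. to 30° C. Fourteen days on, foliage received an even spray of the diluted emulsion. Herbicidal or crop effect was judged three weeks afterwards.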
# barnyard grass [2] = assay: Test Example 3: herbicidal effect by foliage application, Wagner pot (Table 18, symbol H); type: in vivo, barnyard grass (Echinochloa crus-galli); conditions: 320 g/ha
# Procedure, shortened: (§2)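 Plants were sown in alluvial soil held under 0.1–0.5 cm standing water and grown 14 days in a greenhouse at 25–30 °C. An emulsifiable formulation, water-diluted to the set dose, was then sprayed onto the foliage, and effects were scored three weeks later using previously defined criteria.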
# oval-leafed pondweed = assay: Test Example 2: herbicidal activity, application during weed generation under submerged conditions (Table 17, symbol C); type: in vivo, oval-leafed pondweed (Monochoria vaginalis); conditions: AAH 320 g/ha; application during weed generation, submerged conditions
# Procedure, shortened: (§3)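 Wagner pot, alluvial soil, 4 cm flood; mixed sowing of all species; greenhouse 25° C.–30° C. Emulsifiable formulation, water-diluted to predetermined dose, applied to paddy water at 1–2 leaf stage. Effect rated at 3 wk using the earlier test's scoring criteria.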
# green foxtail [3] = assay: Test Example 4: herbicidal effect by soil treatment (Table 19, symbol G); type: in vivo, green foxtail (Setaria viridis); conditions: 320 g/ha
# Procedure, shortened: (§4)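 Pre-emergence style soil spray: seeds under ~1.5 cm sterilized diluvial soil received a uniform coat of emulsion diluted to the predetermined herbicide amount. Greenhouse 25–30° C; readout at week three on previously defined criteria.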
# late watergrass = assay: Test Example 2: herbicidal activity, application during weed generation under submerged conditions (Table 17, symbol A); type: in vivo, late watergrass (Echinochloa oryzicola); conditions: AAH 320 g/ha; application during weed generation, submerged conditions
# Procedure, shortened: as §3
# velvetleaf [4] = assay: Test Example 5: herbicidal effect by foliage application, plastic box (Table 20, symbol M); type: in vivo, velvetleaf (Abutilon theophrasti); conditions: foliage application, 320 g/ha, 3 weeks after application
# Procedure, shortened: as §1
# wild oat [5] = assay: Test Example 5: herbicidal effect by foliage application, plastic box (Table 20, symbol I); type: in vivo, wild oat (Avena fatua); conditions: foliage application, 320 g/ha, 3 weeks after application
# Procedure, shortened: as §1
# windgrass [6] = assay: Test Example 4: herbicidal effect by soil treatment (Table 19, symbol L); type: in vivo, windgrass (Apera spica-venti); conditions: 320 g/ha
# Procedure, shortened: as §4
# redroot pigweed = assay: Test Example 4: herbicidal effect by soil treatment (Table 19, symbol N); type: in vivo, redroot pigweed (Amaranthus retroflexus); conditions: 320 g/ha
# Procedure, shortened: as §4
# barnyard grass [7] = assay: Test Example 5: herbicidal effect by foliage application, plastic box (Table 20, symbol H); type: in vivo, barnyard grass (Echinochloa crus-galli); conditions: foliage application, 320 g/ha, 3 weeks after application
# Procedure, shortened: as §1
# Italian ryegrass [8] = assay: Test Example 4: herbicidal effect by soil treatment (Table 19, symbol K); type: in vivo, Italian ryegrass (Lolium multiflorum); conditions: 320 g/ha
# Procedure, shortened: as §4
# green foxtail [9] = assay: Test Example 5: herbicidal effect by foliage application, plastic box (Table 20, symbol G); type: in vivo, green foxtail (Setaria viridis); conditions: foliage application, 320 g/ha, 3 weeks after application
# Procedure, shortened: as §1
# persian speedwell [10] = assay: Test Example 5: herbicidal effect by foliage application, plastic box (Table 20, symbol R); type: in vivo, Persian speedwell (Veronica persica); conditions: foliage application, 320 g/ha, 3 weeks after application
# Procedure, shortened: as §1
# southern crabgrass [11] = assay: Test Example 5: herbicidal effect by foliage application, plastic box (Table 20, symbol F); type: in vivo, southern crabgrass (Digitaria ciliaris); conditions: foliage application, 320 g/ha, 3 weeks after application
# Procedure, shortened: as §1
# southern crabgrass [12] = assay: Test Example 4: herbicidal effect by soil treatment (Table 19, symbol F); type: in vivo, southern crabgrass (Digitaria ciliaris); conditions: 320 g/ha
# Procedure, shortened: as §4
# blackgrass [13] = assay: Test Example 4: herbicidal effect by soil treatment (Table 19, symbol J); type: in vivo, blackgrass (Alopecurus myosuroides); conditions: 320 g/ha
# Procedure, shortened: as §4
# barnyard grass [14] = assay: Test Example 4: herbicidal effect by soil treatment (Table 19, symbol H); type: in vivo, barnyard grass (Echinochloa crus-galli); conditions: 320 g/ha
# Procedure, shortened: as §4
# chickweed = assay: Test Example 4: herbicidal effect by soil treatment (Table 19, symbol P); type: in vivo, common chickweed (Stellaria media); conditions: 320 g/ha
# Procedure, shortened: as §4
# lambsquarters [15] = assay: Test Example 4: herbicidal effect by soil treatment (Table 19, symbol O); type: in vivo, lambsquarters (Chenopodium album); conditions: 320 g/ha
# Procedure, shortened: as §4
# persian speedwell [16] = assay: Test Example 4: herbicidal effect by soil treatment (Table 19, symbol R); type: in vivo, Persian speedwell (Veronica persica); conditions: 320 g/ha
# Procedure, shortened: as §4
# lambsquarters [17] = assay: Test Example 5: herbicidal effect by foliage application, plastic box (Table 20, symbol O); type: in vivo, lambsquarters (Chenopodium album); conditions: foliage application, 320 g/ha, 3 weeks after application
# Procedure, shortened: as §1
# windgrass [18] = assay: Test Example 5: herbicidal effect by foliage application, plastic box (Table 20, symbol L); type: in vivo, windgrass (Apera spica-venti); conditions: foliage application, 320 g/ha, 3 weeks after application
# Procedure, shortened: as §1
# Italian ryegrass [19] = assay: Test Example 5: herbicidal effect by foliage application, plastic box (Table 20, symbol K); type: in vivo, Italian ryegrass (Lolium multiflorum); conditions: foliage application, 320 g/ha, 3 weeks after application
# Procedure, shortened: as §1
# Chinese sprangletop = assay: Test Example 3: herbicidal effect by foliage application, Wagner pot (Table 18, symbol D); type: in vivo, chinese sprangletop (Leptochloa chinensis); conditions: 320 g/ha
# Procedure, shortened: as §2
# Japanese bulrush = assay: Test Example 2: herbicidal activity, application during weed generation under submerged conditions (Table 17, symbol B); type: in vivo, Japanese bulrush (Schoenoplectus juncoides); conditions: AAH 320 g/ha; application during weed generation, submerged conditions
# Procedure, shortened: as §3
# velvetleaf [20] = assay: Test Example 4: herbicidal effect by soil treatment (Table 19, symbol M); type: in vivo, velvetleaf (Abutilon theophrasti); conditions: 320 g/ha
# Procedure, shortened: as §4
# wild oat [21] = assay: Test Example 4: herbicidal effect by soil treatment (Table 19, symbol I); type: in vivo, wild oat (Avena fatua); conditions: 320 g/ha
# Procedure, shortened: as §4
# rice flat sedge = assay: Test Example 3: herbicidal effect by foliage application, Wagner pot (Table 18, symbol E); type: in vivo, rice flat sedge (Cyperus iria); conditions: 320 g/ha
# Procedure, shortened: as §2
compound,measurement,setting,value
CCCC(=O)Oc1c(C)nn(C)c(=O)c1-c1c(-c2ccc(C(F)(F)F)cc2)sc2ccc(F)cc12 [2-021],effect on blackgrass (J),blackgrass [1],3 (Herbicidal rate of 40% or more and less than 70%)
same,"herbicidal effect on H (barnyard grass), rating 0-5",barnyard grass [2],5 (Herbicidal rate of 90% or more (almost completely withered))
same,"herbicidal effect rating, C: oval-leafed pondweed",oval-leafed pondweed,0 (Herbicidal rate of 5% or less (almost no effect))
same,"herbicidal effect rating, G: green foxtail",green foxtail [3],5 (Herbicidal rate of 90% or more (almost completely withered))
same,"herbicidal effect rating, A: late watergrass",late watergrass,0 (Herbicidal rate of 5% or less (almost no effect))
same,effect on velvetleaf (M),velvetleaf [4],5 (Herbicidal rate of 90% or more (almost completely withered))
same,effect on wild oat (I),wild oat [5],5 (Herbicidal rate of 90% or more (almost completely withered))
same,"herbicidal effect rating, L: windgrass",windgrass [6],5 (Herbicidal rate of 90% or more (almost completely withered))
same,"herbicidal effect rating, N: redroot pigweed",redroot pigweed,5 (Herbicidal rate of 90% or more (almost completely withered))
same,effect on barnyard grass (H),barnyard grass [7],5 (Herbicidal rate of 90% or more (almost completely withered))
same,"herbicidal effect rating, K: Italian ryegrass",Italian ryegrass [8],5 (Herbicidal rate of 90% or more (almost completely withered))
same,effect on green foxtail (G),green foxtail [9],5 (Herbicidal rate of 90% or more (almost completely withered))
same,effect on persian speedwell (R),persian speedwell [10],5 (Herbicidal rate of 90% or more (almost completely withered))
same,effect on southern crabgrass (F),southern crabgrass [11],4 (Herbicidal rate of 70% or more and less than 90%)
same,"herbicidal effect rating, F: southern crabgrass",southern crabgrass [12],5 (Herbicidal rate of 90% or more (almost completely withered))
same,"herbicidal effect rating, J: blackgrass",blackgrass [13],0 (Herbicidal rate of 5% or less (almost no effect))
same,"herbicidal effect rating, H: barnyard grass",barnyard grass [14],4 (Herbicidal rate of 70% or more and less than 90%)
same,"herbicidal effect rating, P: chickweed",chickweed,5 (Herbicidal rate of 90% or more (almost completely withered))
same,"herbicidal effect rating, O: lambsquarters",lambsquarters [15],5 (Herbicidal rate of 90% or more (almost completely withered))
same,"herbicidal effect rating, R: persian speedwell",persian speedwell [16],5 (Herbicidal rate of 90% or more (almost completely withered))
same,effect on lambsquarters (O),lambsquarters [17],5 (Herbicidal rate of 90% or more (almost completely withered))
same,effect on windgrass (L),windgrass [18],5 (Herbicidal rate of 90% or more (almost completely withered))
same,effect on Italian ryegrass (K),Italian ryegrass [19],5 (Herbicidal rate of 90% or more (almost completely withered))
same,"herbicidal effect on D (Chinese sprangletop), rating 0-5",Chinese sprangletop,3 (Herbicidal rate of 40% or more and less than 70%)
same,"herbicidal effect rating, B: Japanese bulrush",Japanese bulrush,2 (Herbicidal rate of 20% or more and less than 40%)
same,"herbicidal effect rating, M: velvetleaf",velvetleaf [20],4 (Herbicidal rate of 70% or more and less than 90%)
same,"herbicidal effect rating, I: wild oat",wild oat [21],0 (Herbicidal rate of 5% or less (almost no effect))
same,"herbicidal effect on E (rice flat sedge), rating 0-5",rice flat sedge,5 (Herbicidal rate of 90% or more (almost completely withered))
